Results from patent US6399612B1, “Heteroaryl butyric acids and their derivatives as inhibitors of matrix metalloproteinases” (Warner-Lambert Company, priority 1997, dated 2002).

Columns and labels:
Format in all cases: biochemical
Settings in all cases: thiopeptolide substrate Ac-Pro-Leu-Gly-thioester-Leu-Leu-Gly-OEt
[1] = biological target: MMP-2CD (gelatinase A catalytic domain) (Homo sapiens, UniProt P08253); assay: MMP-2CD inhibition, thiopeptolide substrate
Description: (§1) Experiments were carried out with the catalytic domains of the proteinases. […] IC50 values were determined using a thiopeptolide substrate, Ac-Pro-Leu-Gly-thioester-Leu-Leu-Gly-OEt (Ye Q.-Z., Johnson L. L., Hupe D. J., and Baragi V., “Purification and Characterization of the Human Stromelysin Catalytic Domain Expressed in Escherichia coli”, Biochemistry, 1992;31:11231-11235).

[2] = biological target: T1, MMP-13CD (collagenase-3 catalytic domain) (Homo sapiens, UniProt P45452); assay: MMP-13CD inhibition, thiopeptolide substrate
T1 construct: Experiments were carried out with the catalytic domains of the proteinases
Description: as §1

[3] = biological target: T2, MMP-3CD (stromelysin-1 catalytic domain) (Homo sapiens, UniProt P08254); assay: MMP-3CD inhibition, thiopeptolide substrate
T2 construct: Experiments were carried out with the catalytic domains of the proteinases
Description: as §1

T2 sequence (P08254 100-272 limits assumed): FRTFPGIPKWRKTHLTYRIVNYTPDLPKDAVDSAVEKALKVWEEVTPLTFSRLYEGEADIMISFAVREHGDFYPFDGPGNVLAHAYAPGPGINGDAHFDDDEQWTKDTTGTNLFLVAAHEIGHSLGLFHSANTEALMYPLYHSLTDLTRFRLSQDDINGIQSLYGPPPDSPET

Row | SMILES | IC50 [1] [nM] | IC50 [2] [nM] | IC50 [3] [nM]
1 | O=C(O)CCC(=NO)c1ccc(-n2cccn2)cc1 [Example 1, 4-Hydroxyimino-4-(4-pyrazol-1-yl-phenyl)butyric Acid] | 1250 | 10600 | 13000
2 | O=C(O)CCC(=O)c1ccc(-c2ccc(Cl)s2)cc1 [Example 2, 4-[4-(5-Chloro-thiophen-2-yl)-phenyl]-4-oxo-butyric Acid] | 63.9 | 1100 | 298
3 | O=C(O)CCC(=NO)c1ccc(-c2ccc(Cl)s2)cc1 [Example 3] | 14 | 120 | 105
